Experimental data published in paper PMC7076710, “Synthesis, Identification, and Structure–Activity Relationship Analysis of GATA4 and NKX2-5 Protein–Protein Interaction Modulators” (Journal of Medicinal Chemistry, 2019).
Blank lines part the entries; values can stand above or below the compound they belong to.

Biological target: T1, GATA4–NKX2-5 transcriptional synergy (Mus musculus, UniProt P42582+Q08369)
T1 construct: expressed in transfected cells; host or cells: COS-1
Assay: GATA4–NKX2-5 transcriptional synergy luciferase reporter assay (3xNKE reporter, COS-1 cells)
Format: cell-based
Experimental: To screen compounds for the GATA4–NKX2-5 interaction, we have developed a luciferase reporter assay based on their property to activate gene transcription synergistically through the NKX2-5 binding site on DNA.[28] In this assay, we transfected mammalian COS-1 cells with protein expression vectors for GATA4 and NKX2-5 proteins together with artificial luciferase reporter vector containing three high affinity binding sites for NKX2-5 (NKE). […] All 257 compounds were tested in two concentrations, 3 and 10 μM. Compounds either inhibited, enhanced, or had no effect on the GATA4–NKX2-5 transcriptional synergy. To investigate the selectivity of the active compounds, we tested their effects on NKX2-5 transcriptional activity by using the same luciferase reporter vector as in transcriptional synergy assay with three NKE sites (Figure 3B). Furthermore, we used GATA luciferase reporter assay to examine if compounds have an effect on GATA4 transcriptional activity. In this assay, we cotransfected the cells with a GATA4 protein expression vector and a reporter vector with tandem GATA4 binding sites (Figure 3C). Previously we have reported that compound 1 inhibited the GATA4–NKX2-5 transcriptional synergy at micromolar concentrations (IC50 = 3 μM).[29]
The plasmids expressing mouse GATA4 protein, pMT2-GATA4, and empty pMT2 were gifts from D. B. Wilson (Department of Pediatrics, St. Louis Children’s Hospital, St. Louis, MO).[44] The plasmids expressing mouse NKX2-5 protein, pMT2-NKX2-5, have been described earlier.[28] The luciferase reporter plasmid used in GATA4–NKX2-5 transcriptional synergy assay and NKX transcriptional assay, pGL3-3xHA, contains three high affinity binding sites for NKX2-5.[28] The luciferase reporter plasmid used in GATA transcriptional assay, NP-112, contains tandem GATA-sites and minimal promoter of rat brain natriuretic peptide (BNP) gene.[45] The pGL3-BNP luciferase reporter containing −534/+4 bp rat BNP proximal promoter described previously was used in hypertrophy assay.[46]
The primary screening assay of compounds’ effect on GATA4–NKX2-5 transcriptional synergy and COS-1 cell culturing has been described earlier.[33] […] (Kinnunen et al., unpublished observation). Briefly, COS-1 cells were seeded at 14 000 cells/well in Isoplate-96 microplates (PerkinElmer, Turku, Finland) and grown overnight. The cells were transfected with the luciferase reporter plasmid pGL3-3xHA 100 ng/well and equal amounts of expression plasmids pMT2-GATA4 and pMT2-NKX2-5 total 50 ng/well. To verify the synergistic effect, the cells were transfected with pMT2-GATA4 or pMT2-NKX2-5 25 ng/well, and the total DNA concentration was adjusted to 50 ng/well with empty pMT2 plasmid. In NKX2-5 and GATA4 luciferase reporter assays, the cells were transfected with reporter plasmid pGL3-3xHA or NP-112 (100 ng/well) and expression plasmid pMT2-NKX2-5 or pMT2-GATA4 (25 ng/well). The ratio of DNA/transfection reagent (Fugene 6, Promega) was 1:3 in all assays. The transfections were performed in serum and antibiotics free media for 6 h. The cells were treated with compounds or vehicle (0.1% DMSO) for 24 h, and the luminescence was measured using neolite Reporter Gene Assay System (PerkinElmer, Turku, Finland) and Victor2 plate reader (PerkinElmer, Turku, Finland).
Raw luciferase data were analyzed in Excel, and clear outliers were removed from triplicates by using the Grubb’s test. Data analysis was performed using R.[49] The luciferase data were first normalized on the basis of the combined mean value of controls. For data visualization and creation of figures, the following R packages were used: ggplot2, cowplot, RColorBrewer, and pheatmap. The heatmaps of the toxicity data were produced with GraphPad Prism 7.00 (GraphPad Software, La Jolla, CA). Statistical significance of luciferase reporter assay data was evaluated by randomized block analysis of variance followed by Dunnett’s post hoc test. […]

[1] = COS-1, GATA4-NKX2-5 transcriptional synergy luciferase reporter assay, compound at 3 µM
[2] = COS-1, GATA4-NKX2-5 transcriptional synergy luciferase reporter assay, compound at 10 µM
[3] = COS-1, compound 3 µM, luciferase reporter activity relative to control
[4] = COS-1, compound 10 µM, luciferase reporter activity relative to control
[5] = COS-1, compound 3 µM, luciferase reporter activity, spread in separate STDEV column
[6] = COS-1, compound at 3 µM, luciferase reporter activity, % of control
[7] = COS-1, compound at 10 µM, luciferase reporter activity, % of control
[8] = COS-1, 3 µM, luciferase reporter activity, % of control
[9] = COS-1, 10 µM, luciferase reporter activity, % of control
[10] = COS-1, compound 10 µM, luciferase reporter activity, spread in separate STDEV column
[11] = 3 µM compound, GATA4–NKX2-5 transcriptional synergy reporter, COS-1 cells
[12] = 10 µM compound, GATA4–NKX2-5 transcriptional synergy reporter, COS-1 cells

T1 sequence (Q08369 whole entry): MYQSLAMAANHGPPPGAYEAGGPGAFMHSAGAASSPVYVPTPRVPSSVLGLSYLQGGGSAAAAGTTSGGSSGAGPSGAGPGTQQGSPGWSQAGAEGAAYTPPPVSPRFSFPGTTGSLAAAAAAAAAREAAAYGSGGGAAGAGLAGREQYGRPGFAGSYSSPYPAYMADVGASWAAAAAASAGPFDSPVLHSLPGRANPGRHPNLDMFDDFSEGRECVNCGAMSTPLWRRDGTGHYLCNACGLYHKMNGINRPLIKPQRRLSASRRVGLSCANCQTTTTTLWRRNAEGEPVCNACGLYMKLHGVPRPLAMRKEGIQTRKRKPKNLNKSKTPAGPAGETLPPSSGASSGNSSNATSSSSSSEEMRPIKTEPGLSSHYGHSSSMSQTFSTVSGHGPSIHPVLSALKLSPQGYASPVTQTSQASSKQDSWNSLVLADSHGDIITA
T1 sequence (P42582 whole entry): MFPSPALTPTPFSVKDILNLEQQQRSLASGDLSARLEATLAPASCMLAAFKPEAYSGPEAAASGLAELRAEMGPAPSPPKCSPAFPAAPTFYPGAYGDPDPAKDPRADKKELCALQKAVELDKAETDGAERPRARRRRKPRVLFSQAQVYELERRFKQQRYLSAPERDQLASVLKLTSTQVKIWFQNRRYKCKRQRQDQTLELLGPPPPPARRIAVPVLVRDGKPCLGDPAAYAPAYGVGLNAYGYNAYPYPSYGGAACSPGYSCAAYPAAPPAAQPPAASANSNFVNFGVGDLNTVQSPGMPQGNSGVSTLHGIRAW

Compound: Cc1onc(-c2ccccc2)c1C(=O)Nc1ccc2c(c1)C(=O)CC2 [Compound 4a, 5-Methyl-N-(3-oxo-2,3-dihydro-1H-inden-5-yl)-3-phenylisoxazole-4-carboxamide]
activity at 3 µM [5]: 103%

Compound: CCN(CC)c1ccc(NC(=O)c2ncoc2-c2ccco2)cc1 [Compound 47x]
activity at 3 µM [5]: 116%
activity at 10 µM [10]: 116%

Compound: Cc1onc(-c2ccccc2)c1C(=O)Nc1ccc(C(=O)OCCN(C)C)cc1 [Compound 10d]
activity at 3 µM [5]: 99.6%
activity at 10 µM [10]: 115%

Compound: CCN(CC)c1ccc(NC(=O)c2c(-c3ccccc3)nnc3ccccc23)cc1 [Compound 47j]
activity at 3 µM [3]: 113%

Compound: CC[N+](C)(c1ccc(NC(=O)c2c(-c3ccccc3)noc2C)cc1)C(C)C (stereo not shown) [Compound 7, N-Ethyl-N-isopropyl-N-methyl-4-(5-methyl-3-phenylisoxazole-4-carboxamido)benzenaminium Iodide]
activity at 3 µM [6]: 88.4%

Compound: CCN(CC)c1ccc(NC(=O)c2c(C(F)(F)F)nn(C)c2Oc2ccccc2)cc1 [Compound 47q]
activity at 3 µM [11]: 94.5%

Compound: CCN(CC)c1ccc(NC(=O)c2c(-c3ccccn3)noc2C)cc1 [Compound 59]
activity at 3 µM [1]: 90.9%
activity at 10 µM [2]: 104%

Compound: Cc1onc(-c2ccccc2)c1COc1ccc(C(=O)O)cc1 [Compound 38, 4-[(5-Methyl-3-phenylisoxazol-4-yl)methoxy]benzoic Acid]
activity at 3 µM [3]: 102%

Compound: CCN(CC)c1ccc(NS(=O)(=O)c2c(-c3ccccc3)noc2C)cc1 [Compound 21, N-[4-(Diethylamino)phenyl]-5-methyl-3-phenylisoxazole-4-sulfonamide]
activity at 3 µM [3]: 104%

Compound: CCCOC(=O)c1ccc(OCc2c(-c3ccccc3)noc2C)cc1 [Compound 34c, Propyl 4-[(5-Methyl-3-phenylisoxazol-4-yl)methoxy]benzoate]
activity at 3 µM [3]: 97.7%
activity at 10 µM [4]: 107%

Compound: CCN(CC)c1ccc(NC(=O)c2csc3nnsc23)cc1 [Compound 47v]
activity at 3 µM [11]: 95.9%
activity at 10 µM [12]: 132%

Compound: CC(=O)c1ccc(NC(=O)c2cc(-c3ccco3)on2)cc1 [Compound 70]
activity at 3 µM [5]: 115%

Compound: Cc1onc(-c2ccccc2)c1COc1ccc(C(=O)N(C)CCCO)cc1 [Compound 36a]
activity at 3 µM [3]: 106%
activity at 10 µM [4]: 105%

Compound: CCN(CC)c1ccc(NC(=O)c2cnn(C)c2-c2ccccc2)cc1 [Compound 47e]
activity at 3 µM [3]: 81.1%

Compound: Cc1onc(-c2ccccc2)c1C(=O)Nc1ccc(N(C)C)cc1 [Compound 4d, N-[4-(Dimethylamino)phenyl]-5-methyl-3-phenylisoxazole-4-carboxamide]
activity at 3 µM [8]: 88.1%

Compound: CCN(c1ccc(NC(=O)c2c(-c3ccccc3)noc2C)cc1[N+](=O)[O-])C(C)C [Compound 8, N-[4-[Ethyl(isopropyl)amino]-3-nitrophenyl]-5-methyl-3-phenylisoxazole-4-carboxamide]
activity at 3 µM [6]: 76.3%

Compound: CCN(CC)c1ccc(NC(=O)c2c(-c3ccc(Br)cc3)noc2C)cc1 [Compound 39i]
activity at 3 µM [11]: 95.1%

Compound: CCN(CC)c1ccc(NC(=O)c2cnoc2C2CC2)cc1 [Compound 47r]
activity at 3 µM [8]: 114%
activity at 10 µM [9]: 145%

Compound: CCN(CC)c1ccc(NC(=O)c2c[nH]nc2-n2cnnn2)cc1 [Compound 47g, N-[4-(Diethylamino)phenyl]-3-(1H-tetrazol-1-yl)-1H-pyrazole-4-carboxamide]
activity at 3 µM [11]: 102%

Compound: CCN(CC)c1ccc(NC(=O)c2c(-c3ccccc3)noc2C)cc1Cl [Compound 4c]
activity at 3 µM [5]: 92.6%

Compound: CCC(O)c1ccc(OCc2c(-c3ccccc3)noc2C)cc1 (racemic) [Compound 34d, (rac)-1-[4-[(5-Methyl-3-phenylisoxazol-4-yl)methoxy]phenyl]propan-1-ol]
activity at 3 µM [6]: 96.5%

More lines, now with the values ahead:

activity at 3 µM [1]: 98.8%
activity at 10 µM [2]: 101%
Compound: Cc1cc(-c2noc(C)c2C(=O)Nc2ccc(C(F)(F)F)cc2)no1 [SI135]

activity at 3 µM [3]: 88.2%
activity at 10 µM [4]: 72.5%
Compound: CCN(CC)c1ccc(NC(=O)c2c(-c3ccccc3)nnn2CC2CCCO2)cc1 (stereo not shown) [SI62]

activity at 3 µM [6]: 93.3%
activity at 10 µM [7]: 107%
Compound: CN(C)c1ccc(C=Nc2cc(-c3ccccc3)nn2-c2ccccc2)cc1 [SI93]

activity at 3 µM [8]: 94.9%
activity at 10 µM [9]: 72.7%
Compound: Cc1onc(-c2ccccc2)c1NC(=O)Nc1ccc(C(=O)c2ccccc2)cc1 [SI26]

activity at 3 µM [5]: 96.6%
activity at 10 µM [10]: 102%
Compound: N#Cc1ccc(NC(=O)c2cc(-c3ccncc3)[nH]n2)cc1 [SI118]

activity at 3 µM [5]: 124%
activity at 10 µM [10]: 115%
Compound: CCN(CC)C(=O)c1cc(-c2cccs2)on1 [SI114]

activity at 3 µM [5]: 94.8%
activity at 10 µM [10]: 70.7%
Compound: CCN(CC)c1ccc(NC(=O)c2c[nH]nc2C2CCCCC2)cc1 [SI86]

activity at 3 µM [8]: 97.9%
activity at 10 µM [9]: 79%
Compound: CCCCOc1ccc(NC(=O)c2c(-c3ccccc3)noc2C)cn1 [SI7]

activity at 3 µM [1]: 96.7%
activity at 10 µM [2]: 82.9%
Compound: O=C(Nc1ccc(N2CCCS2(=O)=O)cc1)c1c[nH]cc1-c1ccc(Cl)s1 [SI127]

activity at 3 µM [6]: 92.6%
activity at 10 µM [7]: 96%
Compound: Cc1onc(-c2ccccc2)c1C(=O)Nc1ccc2c(c1)nc(C)n2C(C)C [SI15]

activity at 3 µM [3]: 91.9%
activity at 10 µM [4]: 89.3%
Compound: COc1ccc(-c2n[nH]c(N)c2/N=N/c2ccc(C(=O)O)cc2)cc1 [SI95]

activity at 3 µM [1]: 82.9%
activity at 10 µM [2]: 87.7%
Compound: Cc1cc(-c2noc(C)c2C(=O)Nc2ccc(Cl)cc2)no1 [SI134]

activity at 3 µM [6]: 91.2%
activity at 10 µM [7]: 118%
Compound: Cc1onc(-c2ccccc2)c1NC(=O)NC1CCCCC1 [SI25]

activity at 3 µM [3]: 74.9%
activity at 10 µM [4]: 86%
Compound: CCN(CC)c1ccc(N(CCOC)C(=O)c2c(-c3cccc([N+](=O)[O-])c3)noc2C)cc1 [SI30]

activity at 3 µM [5]: 90%
activity at 10 µM [10]: 105%
Compound: Cc1onc(-c2ccc(Br)s2)c1C(=O)NC1CC1 [SI117]

activity at 3 µM [6]: 109%
activity at 10 µM [7]: 68.7%
Compound: Cc1onc(-c2ccccc2)c1NC(=O)Nc1ccc(OC(F)(F)F)cc1 [SI23]

activity at 3 µM [3]: 112%
activity at 10 µM [4]: 117%
Compound: O=C(Nc1ccc2oc(-c3ccccc3)cc(=O)c2c1)c1cnsc1 [SI100]

activity at 3 µM [1]: 91.2%
activity at 10 µM [2]: 103%
Compound: CC(C)c1ccc(NC(=O)c2n[nH]c3c2COc2ccccc2-3)cc1 [SI119]

activity at 3 µM [6]: 83.5%
activity at 10 µM [7]: 78%
Compound: Cc1onc(-c2ccccc2)c1C(=O)Nc1nc2ccccc2n1C [SI9]

activity at 3 µM [6]: 108%
activity at 10 µM [7]: 99.5%
Compound: Cc1onc(-c2ccccc2)c1C(=O)Nc1cnc2ccccc2c1 [SI12]

activity at 3 µM [3]: 96.6%
activity at 10 µM [4]: 87.9%
Compound: CCN(CC)c1ccc(C(=O)Cn2nnnc2-c2ccccc2)cc1 [SI69]

activity at 3 µM [6]: 87%
activity at 10 µM [7]: 117%
Compound: CCN(CCO)c1ccc(N(C)C(=O)c2c(-c3ccccc3)noc2C)cc1 [SI36]

activity at 3 µM [11]: 102%
activity at 10 µM [12]: 71.2%
Compound: O=C(Nc1ccc2oc(-c3ccccc3)cc(=O)c2c1)c1c[nH]nc1-c1ccccc1 [SI90]

activity at 3 µM [8]: 80.4%
activity at 10 µM [9]: 114%
Compound: CCN(CC)c1ccc(C(=O)On2nnc3ccccc32)cc1 [SI22]
